How the values were obtained:
[1] = temperature cycling test of FS200 flowable concentrate for seed treatment formulations, analysed under a microscope (40×) for crystal growth; type: physicochemical; settings: for crystal growth: FS formulation
Experimental: As mentioned previously, it is crucial for the successful application of an agrochemical and/or pharmaceutical formulation that the crystalline form is stable in the particular formulation environment. Flowable concentrates for seed treatment (FS) formulations were prepared for both Form A and Form B. The only difference between the two formulations was the polymorphic form used, all of the other components were identical. The formulations were analyzed under a microscope (40×) for possible crystal growth which can have detrimental consequences such as thickening and potentially solidification of the formulation which can in turn lead to blockages in application equipment, e.g. in seed coating equipment or in spray nozzles in agricultural application machinery. Pictures were taken of the formulations at (i) start (FIGS. 13a and 14a), (ii) immediately after the temperature cycling test (FIGS. 13b and 14b) and (iii) two days at room temperature (RT) after the temperature cycling test (FIGS. 13c and 14c). The pictures are shown for the formulation comprising Form A in FIGS. 13a, 13b and 13c and the pictures for the formulations comprising Form B in FIGS. 14a, 14b and 14c. […] The recipe used is given in Table 8: The above formulations were tested for stability in a temperature cycling test as shown in FIG. 12. The formulations were then analyzed under the microscope (40×) to check for possible stability issues, in particular crystal growth and pictures were taken.

[2] = chemical stability of the polymorphic forms in the formulations tested; settings: in the FS formulations tested
[3] = at start, before the temperature cycling test, microscope 40× (FIGS. 13a, 14a)
[4] = immediately after the temperature cycling test, microscope 40× (FIGS. 13b, 14b)
[5] = two days at room temperature after the temperature cycling test, microscope 40× (FIGS. 13c, 14c)

| crystal growth [1, 3] | crystal growth [1, 4] | crystal growth [1, 5] | resistance to crystal growth ([1]; when exposed to typical storage conditions) | chemical stability (compound degradation) [2] | SMILES |
| --- | --- | --- | --- | --- | --- |
| did not exhibit any crystal growth | no such crystal growth | no such crystal growth | surprisingly resistant to crystal growth | no compound degradation was observed | O=C(N[C@H]1CC[C@H]1c1ccc(Cl)cc1Cl)c1cccnc1C(F)(F)F [Form B, (1S,2S) N-[2-(2,4-dichlorophenyl)cyclobutyl]-2-(trifluoromethyl)pyridine-3-carboxamide] |
| did not exhibit any crystal growth | clear crystal growth | even further crystal growth |  |  | O=C(N[C@H]1CC[C@H]1c1ccc(Cl)cc1Cl)c1cccnc1C(F)(F)F [Form A, N-[(1S,2S)-2-(2,4-dichlorophenyl)cyclobutyl]-2-(trifluoromethyl) pyridine-3-carboxamide] |

— patent publication US11053201B2, “Crystalline forms” (SYNGENTA PARTICIPATIONS AG, priority 2018, dated 2021)
